Results: patent publication US11746100B2 (GLOBAL BLOOD THERAPEUTICS, INC., priority 2020, dated 2023)

Target: T1, human ferroportin (Homo sapiens, UniProt Q9NP59)
T1 construct: luciferase reporter (read with the Nano-Glo Luciferase Assay System); expressed in transfected cells; host or cells: CHO cells, stably transfected, expression induced with doxycycline
T1 sequence (Q9NP59 1-571): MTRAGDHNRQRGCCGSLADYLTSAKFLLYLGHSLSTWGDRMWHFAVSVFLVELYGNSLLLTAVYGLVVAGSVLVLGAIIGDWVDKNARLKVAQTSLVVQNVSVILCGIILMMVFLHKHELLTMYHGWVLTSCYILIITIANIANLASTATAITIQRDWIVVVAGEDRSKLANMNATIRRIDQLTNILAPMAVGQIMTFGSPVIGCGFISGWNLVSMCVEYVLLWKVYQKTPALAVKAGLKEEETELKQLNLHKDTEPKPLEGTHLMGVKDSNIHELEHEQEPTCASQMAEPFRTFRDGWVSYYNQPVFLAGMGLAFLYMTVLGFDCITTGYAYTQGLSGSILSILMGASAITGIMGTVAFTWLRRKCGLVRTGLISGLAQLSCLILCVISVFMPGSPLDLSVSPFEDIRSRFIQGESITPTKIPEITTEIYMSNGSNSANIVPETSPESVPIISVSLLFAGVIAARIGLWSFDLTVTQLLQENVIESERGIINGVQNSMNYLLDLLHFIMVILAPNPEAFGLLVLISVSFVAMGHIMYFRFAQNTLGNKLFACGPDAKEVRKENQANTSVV
Assay: Biological in-vitro ferroportin internalization assay (luciferase reporter)
Format: cell-based
Details: average pEC50; stably-transfected CHO cell line expressing human ferroportin tagged to a luciferase reporter; 6 h incubation with test compound
In short: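 Stably transfected CHO cells expressing luciferase-tagged human ferroportin, plated 24 h with ferric ammonium citrate and induced with doxycycline for 24 h. Compounds incubated 6 h, then luciferase activity measured by Nano-Glo; average pEC50 reported.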

SMILES | pEC50
CN(CC(=O)NC(C)(C)C)c1nc(-c2cc(O[C@@H]3CCN(CCF)C3)ccn2)nc2c1CCC2 [Compound 497, N-tert-butyl-2-{[2-(4-{[(3R)-1-(2-fluoroethyl)pyrrolidin-3-yl]oxy}pyridin-2-yl)-5H,6H,7H-cyclopenta[d]pyrimidin-4-yl](methyl)amino}acetamide] | 8.2
COc1ccnc(-c2nc3c(c(N(C)CC(=O)N4CCOCC4)n2)CCC3)c1 [Compound 477, 2-{[2-(4-methoxypyridin-2-yl)-5H,6H,7H-cyclopenta[d]pyrimidin-4-yl](methyl)amino}-1-(morpholin-4-yl)ethan-1-one] | 6.9
CN(CC(=O)NC(C)(C)C)c1nc(-c2nccn2C)nc2c1CCC2 [Compound 162, N-tert-butyl-2-{methyl[2-(1-methyl-1H-imidazol-2-yl)-5H,6H,7H-cyclopenta[d]pyrimidin-4-yl]amino}acetamide] | 5.7
CCNC(=O)CN(C)c1nc(-c2cc(OCC(O)(CC)CC)ccn2)nc2c1CCC2 [Compound 442, N-ethyl-2-({2-[4-(2-ethyl-2-hydroxybutoxy)pyridin-2-yl]-5H,6H,7H-cyclopenta[d]pyrimidin-4-yl}(methyl)amino)acetamide] | 8
CN(C)CCOc1ccnc(-c2nc(N(C)CC(=O)NC(C)(C)C)c3c(n2)C(C)(C)CC3)c1 [Compound 457, N-tert-butyl-2-[(2-{4-[2-(dimethylamino)ethoxy]pyridin-2-yl}-7,7-dimethyl-5H,6H,7H-cyclopenta[d]pyrimidin-4-yl)(methyl)amino]acetamide] | 6.3
CN(C)CCOc1ccnc(-c2nc3c(c(N(C)CC(=O)NC4(C(F)(F)F)CC4)n2)CCC3)c1 [Compound 418, 2-[(2-{4-[2-(dimethylamino)ethoxy]pyridin-2-yl}-5H,6H,7H-cyclopenta[d]pyrimidin-4-yl)(methyl)amino]-N-[1-(trifluoromethyl)cyclopropyl]acetamide] | 7.5
CN(c1nc(-c2ccccn2)nc2c1CCC2)[C@@H](COC(C)(C)C)C(=O)NC(C)(C)C [Compound 120, (2S)-3-(tert-butoxy)-N-tert-butyl-2-{methyl[2-(pyridin-2-yl)-5H,6H,7H-cyclopenta[d]pyrimidin-4-yl]amino}propanamide] | 7.2
C[C@H](C(=O)NC(C)(C)C)N(C)c1nc(-c2cc(O[C@@H]3CCN(C)C3)ccn2)nc2c1CCC2 [Compound 503, (2R)—N-tert-butyl-2-{methyl[2-(4-{[(3R)-1-methylpyrrolidin-3-yl]oxy}pyridin-2-yl)-5H,6H,7H-cyclopenta[d]pyrimidin-4-yl]amino}propanamide] | 8.5
COc1cc2c(cn1)N(C(=O)CN(C)c1nc(-c3cc(OCCO)ccn3)nc3c1CCC3)CC2 [Compound 375, 2-({2-[4-(2-hydroxyethoxy)pyridin-2-yl]-5H,6H,7H-cyclopenta[d]pyrimidin-4-yl}(methyl)amino)-1-{5-methoxy-1H,2H,3H-pyrrolo[2,3-c]pyridin-1-yl}ethan-1-one] | 8
Cn1cnc(-c2nc3c(c(N4CCCCCC4)n2)CCC3)c1 [Compound 97, 1-[2-(1-methyl-1H-imidazol-4-yl)-5H,6H,7H-cyclopenta[d]pyrimidin-4-yl]azepane] | 7.1
CN(CC(=O)NC(C)(C)C)c1nc(-c2cc(O[C@H]3CCOC3)ccn2)nc2c1CCC2 [Compound 317, N-tert-butyl-2-[methyl(2-{4-[(3S)-oxolan-3-yloxy]pyridin-2-yl}-5H,6H,7H-cyclopenta[d]pyrimidin-4-yl)amino]acetamide] | 7.9
CN(c1nc(-c2cc(OCCO)ccn2)nc2c1CCC2)[C@@H]1CCCN(c2cccc(F)c2)C1=O [Compound 321, (3R)-1-(3-fluorophenyl)-3-({2-[4-(2-hydroxyethoxy)pyridin-2-yl]-5H,6H,7H-cyclopenta[d]pyrimidin-4-yl}(methyl)amino)piperidin-2-one] | 7.1
CN1CC[C@@H](Oc2ccnc(-c3nc4c(c(N(C)CC(=O)NC5(C(F)(F)F)CC5)n3)CCC4)c2)C1 [Compound 487, 2-{methyl[2-(4-{[(3R)-1-methylpyrrolidin-3-yl]oxy}pyridin-2-yl)-5H,6H,7H-cyclopenta[d]pyrimidin-4-yl]amino}-N-[1-(trifluoromethyl)cyclopropyl]acetamide] | 7.5

Now from value to molecule:

pEC50 | SMILES
8.1 | C[C@H](CO)Oc1ccnc(-c2nc3c(c(N(C)CC(=O)NC(C)(C)C)n2)CCC3)c1 [Compound 384, N-tert-butyl-2-{[2-(4-{[(2R)-1-hydroxypropan-2-yl]oxy}pyridin-2-yl)-5H,6H,7H-cyclopenta[d]pyrimidin-4-yl](methyl)amino}acetamide]
8.1 | CN(CC(=O)NC(C)(C)C)c1nc(-c2cc(OC[C@@H]3CCCN3C)ccn2)nc2c1CCC2 [Compound 412, N-tert-butyl-2-{methyl[2-(4-{[(2S)-1-methylpyrrolidin-2-yl]methoxy}pyridin-2-yl)-5H,6H,7H-cyclopenta[d]pyrimidin-4-yl]amino}acetamide]
6.8 | CCN(Cc1ncccn1)c1nc(-c2ccccn2)nc2c1CCC2 [Compound 80, N-ethyl-2-(pyridin-2-yl)-N-[(pyrimidin-2-yl)methyl]-5H,6H,7H-cyclopenta[d]pyrimidin-4-amine]
8.3 | CN(CC(=O)NC(C)(C)C)c1nc(-c2cc(OCC3(O)CCOCC3)ccn2)nc2c1CCC2 [Compound 405, N-tert-butyl-2-[(2-{4-[(4-hydroxyoxan-4-yl)methoxy]pyridin-2-yl}-5H,6H,7H-cyclopenta[d]pyrimidin-4-yl)(methyl)amino]acetamide]
6.9 | COc1ccnc(-c2nc3c(c(N(C)CC(=O)NC4CCOCC4)n2)CCC3)c1 [Compound 134, 2-{[2-(4-methoxypyridin-2-yl)-5H,6H,7H-cyclopenta[d]pyrimidin-4-yl](methyl)amino}-N-(oxan-4-yl)acetamide]
6.7 | CN(CC(=O)NC(C)(C)C)c1nc(-c2cc(F)ccn2)nc2c1CCC2 [Compound 58, N-tert-butyl-2-{[2-(4-fluoropyridin-2-yl)-5H,6H,7H-cyclopenta[d]pyrimidin-4-yl](methyl)amino}acetamide]
7.8 | C[C@@H](CN(C)C)Oc1ccnc(-c2nc3c(c(N(C)CC(=O)NC(C)(C)C)n2)CCC3)c1 [Compound 402, N-tert-butyl-2-{[2-(4-{[(2S)-1-(dimethylamino)propan-2-yl]oxy}pyridin-2-yl)-5H,6H,7H-cyclopenta[d]pyrimidin-4-yl](methyl)amino}acetamide]
8.2 | COc1cccc(NC(=O)CN(C)c2nc(-c3cc(OCCO)ccn3)nc3c2CCC3)c1 [Compound 279, 2-({2-[4-(2-hydroxyethoxy)pyridin-2-yl]-5H,6H,7H-cyclopenta[d]pyrimidin-4-yl}(methyl)amino)-N-(3-methoxyphenyl)acetamide]
6.6 | CN(CC(=O)NCc1ccccn1)c1nc(-c2ccccn2)nc2c1CCC2 [Compound 38, 2-{methyl[2-(pyridin-2-yl)-5H,6H,7H-cyclopenta[d]pyrimidin-4-yl]amino}-N-[(pyridin-2-yl)methyl]acetamide]
7.8 | COc1ccnc(-c2nc3c(c(N(C)CC(=O)NC4CCCCC4)n2)CCC3)c1 [Compound 137, N-cyclohexyl-2-{[2-(4-methoxypyridin-2-yl)-5H,6H,7H-cyclopenta[d]pyrimidin-4-yl](methyl)amino}acetamide]
6.4 | CN(CC(=O)Nc1cnn(C)c1)c1nc(-c2cc(OC(F)F)ccn2)nc2c1CCC2 [Compound 213, 2-({2-[4-(difluoromethoxy)pyridin-2-yl]-5H,6H,7H-cyclopenta[d]pyrimidin-4-yl}(methyl)amino)-N-(1-methyl-1H-pyrazol-4-yl)acetamide]
7.4 | COc1ccnc(-c2nc3c(c(N(C)CC(=O)Nc4cnn(C)c4)n2)CCC3)c1 [Compound 154, 2-{[2-(4-methoxypyridin-2-yl)-5H,6H,7H-cyclopenta[d]pyrimidin-4-yl](methyl)amino}-N-(1-methyl-1H-pyrazol-4-yl)acetamide]
6.2 | CN(CC(=O)NC(C)(C)C)c1nc(-c2ccc(Cl)cn2)nc2c1CCC2 [Compound 300, N-tert-butyl-2-{[2-(5-chloropyridin-2-yl)-5H,6H,7H-cyclopenta[d]pyrimidin-4-yl](methyl)amino}acetamide]
7.6 | COc1ccc(NC(=O)CN(C)c2nc(-c3cc(OCCN(C)C)ccn3)nc3c2CCC3)cn1 [Compound 344, 2-[(2-{4-[2-(dimethylamino)ethoxy]pyridin-2-yl}-5H,6H,7H-cyclopenta[d]pyrimidin-4-yl)(methyl)amino]-N-(6-methoxypyridin-3-yl)acetamide]
7.3 | COc1ccnc(-c2nc3c(c(N(C)CC(=O)N[C@@H](C)CO)n2)CCC3)c1 [Compound 459, N-[(2S)-1-hydroxypropan-2-yl]-2-{[2-(4-methoxypyridin-2-yl)-5H,6H,7H-cyclopenta[d]pyrimidin-4-yl](methyl)amino}acetamide]
6.6 | COCCN(C)c1nc(-c2ccccn2)nc2c1CCC2 [Compound 84, N-(2-methoxyethyl)-N-methyl-2-(pyridin-2-yl)-5H,6H,7H-cyclopenta[d]pyrimidin-4-amine]
